Assay results as given in patent publication US20080102497A1, “ENZYMATIC HYDROLYSIS OF STARCH” (priority 2006, published 2008).
Values joined by “and” are separate entries in the source; they are usually repeats but may differ in a detail not shown here. Equal entries are not always repeated. Where two headings read alike, the source gives them in different places.

Legend:
[1] = molecular target: α-amylase from Bacillus amyloliquefaciens (Bacillus amyloliquefaciens, UniProt P00692); experiment: hydrolysis of cooked dent corn starch; type: biochemical; details: 0.1 mM Mn^++; cooked dent corn starch 0.5%; pH 5.2; 37° C., 10 min
Procedure: (§1) The separate reaction mixtures were incubated at 37° C. for 10 minutes. The control reaction mixtures contained enzyme, buffer, and starch but no manganese ion. The starch hydrolysis reaction was stopped by combining the reaction mixture with a solution containing DNSA and heating for 30 min at 85° C. The absorbance of the control and test samples was measured at 562 nm to monitor the amount of reducing sugar in each sample.

[2] = molecular target: glucoamylase from Aspergillus Niger (Aspergillus niger, UniProt P69328); details: for Relative Activity: washed 5 times before enzyme, pH 5.3, 37° C., 20 min
Procedure: Thereafter 40 μl of the buffer and metal solution was added to 15 mg raw corn starch and the resulting mixture was pre-incubated at 20° C. for 20 minutes. The starch mixture was washed 5 times with excess buffer, followed by centrifugation, and removal of the supernatant. Then an enzyme solution containing buffer and the glucoamylase from Aspergillus niger was added to the washed starch and the reaction mixture incubated at 37° C. for 20 minutes. The control reaction mixture contained substrate, enzyme, and buffer but no manganese ion. The starch hydrolysis reaction was stopped by combining the reaction mixture with a solution containing DNSA and heating for 30 min at 85° C. The absorbance of the control and test samples was measured at 562 nm to monitor the amount of reducing sugar in each sample.

[3] = molecular target: T1, α-amylase from porcine pancreas (Sus scrofa, UniProt P00690); experiment: hydrolysis of cooked dent corn starch; type: biochemical; details: cooked dent corn starch 0.5%, pH 5.2, 37° C., 10 min
T1 construct: the α-amylase from porcine pancreas; from tissue; host or cells: porcine pancreas
T1 sequence (P00690 16-511): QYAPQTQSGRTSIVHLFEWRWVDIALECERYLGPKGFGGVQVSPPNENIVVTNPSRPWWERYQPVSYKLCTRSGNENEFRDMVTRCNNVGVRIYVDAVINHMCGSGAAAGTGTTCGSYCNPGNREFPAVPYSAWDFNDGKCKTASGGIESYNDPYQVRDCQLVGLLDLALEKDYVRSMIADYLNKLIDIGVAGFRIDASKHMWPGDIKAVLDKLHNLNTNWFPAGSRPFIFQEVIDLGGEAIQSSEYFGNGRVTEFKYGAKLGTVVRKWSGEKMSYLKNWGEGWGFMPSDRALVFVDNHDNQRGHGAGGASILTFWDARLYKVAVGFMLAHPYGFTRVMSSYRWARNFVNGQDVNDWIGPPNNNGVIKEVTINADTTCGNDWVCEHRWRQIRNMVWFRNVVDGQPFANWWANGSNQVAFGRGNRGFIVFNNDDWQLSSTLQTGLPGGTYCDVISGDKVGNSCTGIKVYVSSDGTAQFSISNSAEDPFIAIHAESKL
Procedure: as §1

glucoamylase from Aspergillus Niger, sequence (P69328 25-640): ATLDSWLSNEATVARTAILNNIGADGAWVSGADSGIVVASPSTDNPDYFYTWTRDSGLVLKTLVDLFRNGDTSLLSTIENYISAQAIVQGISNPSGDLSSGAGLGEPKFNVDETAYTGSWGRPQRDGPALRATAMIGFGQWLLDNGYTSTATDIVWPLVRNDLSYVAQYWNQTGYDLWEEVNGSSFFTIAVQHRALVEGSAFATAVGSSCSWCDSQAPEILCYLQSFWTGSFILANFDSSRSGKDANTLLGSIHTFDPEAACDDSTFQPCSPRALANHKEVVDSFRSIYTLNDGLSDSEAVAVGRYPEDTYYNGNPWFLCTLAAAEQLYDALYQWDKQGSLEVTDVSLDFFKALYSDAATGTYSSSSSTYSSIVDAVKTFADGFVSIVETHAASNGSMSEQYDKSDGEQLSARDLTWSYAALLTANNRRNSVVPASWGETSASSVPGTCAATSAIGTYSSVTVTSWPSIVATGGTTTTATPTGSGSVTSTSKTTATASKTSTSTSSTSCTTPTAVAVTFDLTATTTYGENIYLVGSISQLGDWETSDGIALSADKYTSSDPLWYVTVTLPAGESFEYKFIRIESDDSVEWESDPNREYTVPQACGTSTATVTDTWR
α-amylase from Bacillus amyloliquefaciens, sequence (P00692 32-514): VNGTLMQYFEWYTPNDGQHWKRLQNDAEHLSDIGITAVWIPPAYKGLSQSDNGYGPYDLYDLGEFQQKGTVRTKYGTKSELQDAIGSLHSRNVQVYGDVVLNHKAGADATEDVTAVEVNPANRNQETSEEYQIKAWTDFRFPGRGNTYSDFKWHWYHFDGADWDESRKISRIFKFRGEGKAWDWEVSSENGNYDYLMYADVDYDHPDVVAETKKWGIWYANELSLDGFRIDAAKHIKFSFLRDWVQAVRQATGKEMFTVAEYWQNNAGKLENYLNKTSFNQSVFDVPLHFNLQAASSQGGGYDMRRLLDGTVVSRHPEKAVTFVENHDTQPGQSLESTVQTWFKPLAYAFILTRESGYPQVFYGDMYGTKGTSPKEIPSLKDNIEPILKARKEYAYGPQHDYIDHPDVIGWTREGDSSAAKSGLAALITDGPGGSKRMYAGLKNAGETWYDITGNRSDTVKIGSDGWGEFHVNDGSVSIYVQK

[Mn+2] [Mn^++, manganese ions]
Relative Activity [1]: 121.0% and 120.4%
Relative Activity ([2]; raw corn starch pre-incubated with 0.01 mM Mn^++): 89.1%
Relative Activity ([2]; raw corn starch pre-incubated with 0.1 mM Mn^++): 84.2%
Relative Activity ([2]; raw corn starch pre-incubated with 1 mM Mn^++): 95.0%
Relative Activity ([2]; raw corn starch pre-incubated with 10 mM Mn^++): 89.1%
cause of Mn^++-induced enhancement (in words) ([2]; starch pre-incubated with Mn^++ and washed): not caused by the action of Mn^++ on the starch
Relative Activity ([3]; 0.01 mM Mn^++): 114.5%
Relative Activity ([3]; 0.1 mM Mn^++): 132.4%
Relative Activity ([3]; 1 mM Mn^++): 144.2%
Relative Activity ([3]; 10 mM Mn^++): 177.7%
